Measured values taken from patent US20260022143A1, “Cyclic Peptide Inhibitors of IL-23” (JANSSEN PHARMACEUTICA NV, priority 2022, published 2026).
pIC50: −log10 of the molar value. Starred links: 1 amine or outer side, 2 acyl side, 3 side chain; linkers in the order of their positions; H or OH if unused. Positions of bridges follow the written chain, without caps; N, C: chain ends. Non-standard residues stand in square brackets, D forms with d. Residues, ends and D or L forms follow the SMILES beside them. Groups on a side chain read outwards from the residue. *: point of attachment. Me3N+CH2CH2(OCH2CH2)4CO = C[N+](C)(C)CCOCCOCCOCCOCCC(=O)*; Me3N+(CH2)2O(CH2)2O(CH2)2CO = C[N+](C)(C)CCOCCOCCC(=O)*; CH2CH2OCH2CH2OCH2CH2NMe3+ = C[N+](C)(C)CCOCCOCC*; Phe(4-N3) = [N-]=[N+]=Nc1ccc(C[C@H](N)C(=O)O)cc1; Trp(7-Me) = Cc1cccc2c(C[C@H](N)C(=O)O)c[nH]c12; X20 = C[N+](C)(C)CC[C@H](N[*:1])C(=O)[*:2]; 3Pal(5-Me) = Cc1cncc(C[C@H](N)C(=O)O)c1; Dab(NMeAc) = CC(=O)N(C)CC[C@H](N)C(=O)O; CH2CH2OCH2CH2NMe3+ = C[N+](C)(C)CCOCC*; γGlu = O=C(O)[C@H](CCC(=O)[*:2])N[*:1]; 2Nal = N[C@@H](Cc1ccc2ccccc2c1)C(=O)O; AEF = NCCOc1ccc(C[C@H](N)C(=O)O)cc1; 3Pal = N[C@@H](Cc1cccnc1)C(=O)O; Lys(Me) = CNCCCC[C@H](N)C(=O)O; NMeK = CN[C@@H](CCCCN)C(=O)O; Pen = CC(C)(S)[C@H](N)C(=O)O; X44 = c1cc[n+](CCOCCOCC*)cc1; Lauroyl = CCCCCCCCCCCC(=O)*; Thp = NC1(C(=O)O)CCOCC1; X3 = C[N+](C)(C)CCCCC*; AEEA = NCCOCCOCC(=O)O; Me2NCH2CH2 = CN(C)CC*; Sar = CNCC(=O)O; X58 = NCCCCC*

How the values were obtained:
[1] = target: T1, IL-23R (Homo sapiens, UniProt Q5VWK5); experiment: IL23R Reporter Assay; format: cell-based; conditions: HEK293 cells containing IL-23R, IL-12RP1 and STAT-inducible firefly luciferase reporter; 10 ng/mL IL-23 (EC90); 5 h at 37° C.; read-out: IL23R Reporter Assay
T1 construct: host or cells: HEK293
T1 sequence (Q5VWK5 24-629): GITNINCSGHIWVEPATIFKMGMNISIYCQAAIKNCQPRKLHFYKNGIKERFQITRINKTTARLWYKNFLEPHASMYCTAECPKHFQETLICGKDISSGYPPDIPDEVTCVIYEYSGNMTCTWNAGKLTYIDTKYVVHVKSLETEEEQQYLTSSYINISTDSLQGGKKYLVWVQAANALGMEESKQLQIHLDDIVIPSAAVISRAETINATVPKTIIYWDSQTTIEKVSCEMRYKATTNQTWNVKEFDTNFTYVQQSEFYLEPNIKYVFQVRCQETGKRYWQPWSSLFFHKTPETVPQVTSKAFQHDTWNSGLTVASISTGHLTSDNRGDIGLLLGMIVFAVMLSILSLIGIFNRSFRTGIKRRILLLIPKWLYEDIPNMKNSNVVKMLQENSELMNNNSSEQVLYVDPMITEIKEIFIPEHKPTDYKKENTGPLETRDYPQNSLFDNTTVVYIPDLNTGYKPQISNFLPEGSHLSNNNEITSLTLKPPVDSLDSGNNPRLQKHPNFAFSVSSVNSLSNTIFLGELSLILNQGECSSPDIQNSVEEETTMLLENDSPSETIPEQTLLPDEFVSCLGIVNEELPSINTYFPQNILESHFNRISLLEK

[2] = Exposed Polar Surface Area (EPSA); format: physicochemical; conditions: SFC on Chirex 3014 column; sample 1 mM DMSO stock; read-out: EPSA
Summary of the method: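 Chirex 3014 column, 35 °C, 4 mL/min; CO2/MeOH + 20 mM NH4 formate, 5→60% modifier at 20%/min. UV/MS detection. EPSA (Å^2) from retention time vs 8-standard calibration line; duplicates; 1 mM DMSO stock injected undiluted.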

Row | Structure (SMILES) | pIC50 [1] | EPSA [2]
1 | CC(=O)N(C)CCCC[C@@H]1NC(=O)[C@H](Cc2c[nH]c3c(C)cccc23)NC(=O)[C@H]([C@@H](C)O)NC(=O)[C@H](CC[N+](C)(C)C)NC(=O)[C@@H](NC(=O)CCOCCOCC[N+](C)(C)C)C(C)(C)SSC(C)(C)[C@@H](C(=O)N[C@@H](Cc2ccc(OCCOCCOCC[N+](C)(C)C)cc2)C(=O)N[C@@H](Cc2ccc3ccccc3c2)C(=O)NC2(C(=O)N[C@@H](CCCCN(C)C(C)=O)C(=O)N[C@@H](CC(N)=O)C(=O)N[C@@H](Cc3cccnc3)C(=O)N(C)CC(=O)N(C)C)CCOCC2)NC1=O [compound 416, cPEG3aCO-Pen(3)-Dab(Me)3-T-7MeW-K(NMeAc)-Pen(3)-APEG3F-2Nal-THP-K(NMeAc)-N-3Pya-Sar-CON(Me)2] ({Me3N+(CH2)2O(CH2)2O(CH2)2CO}-[Pen][X20]T[Trp(7-Me)][Lys(Me)](Ac)[Pen]Y(CH2CH2OCH2CH2OCH2CH2NMe3+)[2Nal][Thp][Lys(Me)](Ac)N[3Pal][Sar]-NMe2; disulfide 1-6) | 8.92 | 166 A^2
2 | CC(=O)N(C)CC[C@H](NC(=O)C1(NC(=O)[C@H](Cc2ccc3ccccc3c2)NC(=O)[C@H](Cc2ccc(OCCN)cc2)NC(=O)[C@H]2NC(=O)[C@H](CCC(=O)N(C)C)NC(=O)[C@H](Cc3c[nH]c4c(C)cccc34)NC(=O)[C@H]([C@@H](C)O)NC(=O)[C@H](CC(=O)N(C)C)NC(=O)[C@@H](NC(=O)CCOCCOCCOCCOCC[N+](C)(C)C)C(C)(C)SSC2(C)C)CCOCC1)C(=O)N[C@@H](CC(N)=O)C(=O)N[C@@H](Cc1cccnc1)C(=O)N(C)CC(=O)N(C)C [compound 173, cPEG5aCO-Pen(3)-N(N(Me)2)-T-7MeW-Q(N(Me)2)-Pen(3)-AEF-2Nal-THP-Dab(NMeAc)-N-3Pya-Sar-CON(Me)2] ({Me3N+CH2CH2(OCH2CH2)4CO}-[Pen]D(NMe2)T[Trp(7-Me)]E(NMe2)[Pen][AEF][2Nal][Thp][Dab(NMeAc)]N[3Pal][Sar]-NMe2; disulfide 1-6 (inferred)) | 8.51 | 144 A^2
3 | CC(=O)N(C)CCCC[C@@H]1NC(=O)[C@H](Cc2c[nH]c3c(C)cccc23)NC(=O)[C@H]([C@@H](C)O)NC(=O)[C@H](CC(=O)N(C)C)NC(=O)[C@@H](NC(=O)CCOCCOCC[N+](C)(C)C)C(C)(C)SSC(C)(C)[C@@H](C(=O)N[C@@H](Cc2ccc(OCCCCCN)cc2)C(=O)N[C@@H](Cc2ccc3ccccc3c2)C(=O)NC2(C(=O)N[C@@H](CCCCN(C)C(C)=O)C(=O)N[C@@H](CC(N)=O)C(=O)N[C@@H](Cc3cccnc3)C(=O)N(C)CC(=O)N(C)C)CCOCC2)NC1=O [compound 528, cPEG3aCO-Pen(3)-N(N(Me)2)-T-7MeW-K(NMeAc)-Pen(3)-APF-2Nal-THP-K(NMeAc)-N-3Pya-Sar-CON(Me)2] ({Me3N+(CH2)2O(CH2)2O(CH2)2CO}-[Pen]D(NMe2)T[Trp(7-Me)][Lys(Me)](Ac)[Pen]Y(X58)[2Nal][Thp][Lys(Me)](Ac)N[3Pal][Sar]-NMe2; disulfide 1-6) | 8.42 | 163 A^2
4 | CCCCCCCCCCCC(=O)N[C@@H](CCC(=O)NCCOCCOCC(=O)NCCOCCOCC(=O)NCCCC[C@@H]1NC(=O)[C@H](Cc2c[nH]c3c(C)cccc23)NC(=O)[C@H]([C@@H](C)O)NC(=O)[C@H](CC(=O)N(C)C)NC(=O)[C@@H](NC(=O)CCOCCOCC[N+](C)(C)C)C(C)(C)SSC(C)(C)[C@@H](C(=O)N[C@@H](Cc2ccc(OCCCCC[N+](C)(C)C)cc2)C(=O)N[C@@H](Cc2ccc3ccccc3c2)C(=O)NC2(C(=O)N[C@@H](CCCCN(C)C(C)=O)C(=O)N[C@@H](CC(N)=O)C(=O)N[C@@H](Cc3cccnc3)C(=O)N(C)[C@@H](CCCCNC(=O)COCCOCCNC(=O)COCCOCCNC(=O)CC[C@H](NC(=O)CCCCCCCCCCC)C(=O)O)C(N)=O)CCOCC2)NC1=O)C(=O)O [compound 352, cPEG3aCO-Pen(3)-N(N(Me)2)-T-7MeW-K(PEG2PEG2gEC12)-Pen(3)-TMAPF-2Nal-THP-K(NMeac)-N-3Pya-NMeK(PEG2PEG2gEC12)-CONH2] ({Me3N+(CH2)2O(CH2)2O(CH2)2CO}-[Pen]D(NMe2)T[Trp(7-Me)]K([AEEA-AEEA-γGlu-Lauroyl])[Pen]Y(X3)[2Nal][Thp][Lys(Me)](Ac)N[3Pal][NMeK]([AEEA-AEEA-γGlu-Lauroyl])-NH2; disulfide 1-6) | 6.72 | 179 A^2
5 | CC(=O)N(C)CCCC[C@@H]1NC(=O)[C@H](Cc2c[nH]c3c(C)cccc23)NC(=O)[C@H]([C@@H](C)O)NC(=O)[C@H](CC(=O)N(C)C)NC(=O)[C@@H](NC(=O)CCOCCOCC[N+](C)(C)C)C(C)(C)SSC(C)(C)[C@@H](C(=O)N[C@@H](Cc2ccc(OCCOCC[N+](C)(C)C)cc2)C(=O)N[C@@H](Cc2ccc3ccccc3c2)C(=O)NC2(C(=O)N[C@@H](CCCCN(C)C(C)=O)C(=O)N[C@@H](CC(N)=O)C(=O)N[C@@H](Cc3cccnc3)C(=O)N(C)CC(=O)N(C)C)CCOCC2)NC1=O [compound 199, cPEG3aCO-Pen(3)-N(N(Me)2)-T-7MeW-K(NMeAc)-Pen(3)-APEG2F-2Nal-THP-K(NMeAc)-N-3Pya-Sar-CON(Me)2] ({Me3N+(CH2)2O(CH2)2O(CH2)2CO}-[Pen]D(NMe2)T[Trp(7-Me)][Lys(Me)](Ac)[Pen]Y(CH2CH2OCH2CH2NMe3+)[2Nal][Thp][Lys(Me)](Ac)N[3Pal][Sar]-NMe2; disulfide 1-6) | 8.52 | 141 A^2

More lines, now with the values ahead:

Row | pIC50 [1] | EPSA [2] | Structure (SMILES)
6 | 9.05 | 171 A^2 | CC(=O)NCCCC[C@@H]1NC(=O)[C@H](Cc2c[nH]c3c(C)cccc23)NC(=O)[C@H]([C@@H](C)O)NC(=O)[C@H](CC(N)=O)NC(=O)[C@@H](NC(=O)[C@@H](CCCNC(=N)N)NC(C)=O)C(C)(C)SSC(C)(C)[C@@H](C(=O)N[C@@H](Cc2ccc(OCCCCC[N+](C)(C)C)cc2)C(=O)N[C@@H](Cc2ccc3ccccc3c2)C(=O)NC2(C(=O)N[C@@H](CCCCNC(C)=O)C(=O)N[C@@H](CC(N)=O)C(=O)N[C@@H](Cc3cncc(C)c3)C(=O)N(C)CC(N)=O)CCOCC2)NC1=O [compound 532, MeCO-r-Pen(3)-N-T-7MeW-K(Ac)-Pen(3)-TMAPF-2Nal-THP-K(Ac)-N-5MePyridinAla-Sar-CONH2] (Ac-[dR][Pen]NT[Trp(7-Me)]K(Ac)[Pen]Y(X3)[2Nal][Thp]K(Ac)N[3Pal(5-Me)][Sar]-NH2; disulfide 2-7)
7 | 8.74 | 153 A^2 | CC(=O)N(C)CCCC[C@@H]1NC(=O)[C@H](Cc2c[nH]c3c(C)cccc23)NC(=O)[C@H]([C@@H](C)O)NC(=O)[C@H](CC(=O)N(C)C)NC(=O)[C@@H](NC(=O)CCOCCOCC[N+](C)(C)C)C(C)(C)SSC(C)(C)[C@@H](C(=O)N[C@@H](Cc2ccc(OCCOCCOCC[n+]3ccccc3)cc2)C(=O)N[C@@H](Cc2ccc3ccccc3c2)C(=O)NC2(C(=O)N[C@@H](CCCCN(C)C(C)=O)C(=O)N[C@@H](CC(N)=O)C(=O)N[C@@H](Cc3cccnc3)C(=O)N(C)CC(=O)N(C)C)CCOCC2)NC1=O [compound 297, cPEG3aCO-Pen(3)-N(N(Me)2)-T-7MeW-K(NMeAc)-Pen(3)-NPyPEG3F-2Nal-THP-K(NMeAc)-N-3Pya-Sar-CON(Me)2] ({Me3N+(CH2)2O(CH2)2O(CH2)2CO}-[Pen]D(NMe2)T[Trp(7-Me)][Lys(Me)](Ac)[Pen]Y(X44)[2Nal][Thp][Lys(Me)](Ac)N[3Pal][Sar]-NMe2; disulfide 1-6 (inferred))
8 | 8.85 | 167 A^2 | CC(=O)NCCCC[C@@H]1NC(=O)[C@H](Cc2c[nH]c3c(C)cccc23)NC(=O)[C@H]([C@@H](C)O)NC(=O)[C@H](CC(N)=O)NC(=O)[C@@H](NC(C)=O)C(C)(C)SSC(C)(C)[C@@H](C(=O)N[C@@H](Cc2ccc(N=[N+]=[N-])cc2)C(=O)N[C@@H](Cc2ccc3ccccc3c2)C(=O)NC2(C(=O)N[C@@H](CCCCNC(C)=O)C(=O)N[C@@H](CC(N)=O)C(=O)N[C@@H](Cc3cccnc3)C(=O)N(C)CC(N)=O)CCOCC2)NC1=O [compound 417] (Ac-[Pen]NT[Trp(7-Me)]K(Ac)[Pen][Phe(4-N3)][2Nal][Thp]K(Ac)N[3Pal][Sar]-NH2; disulfide 1-6 (inferred))
9 | 8.19 | 153 A^2 | CC(=O)N[C@@H]1C(=O)N[C@@H](CC(=O)N(C)C)C(=O)N[C@@H]([C@@H](C)O)C(=O)N[C@@H](Cc2c[nH]c3c(C)cccc23)C(=O)N[C@@H](CCCCN(C)C(C)=O)C(=O)N[C@H](C(=O)N[C@@H](Cc2ccc(OCCN(C)C)cc2)C(=O)N[C@@H](Cc2ccc3ccccc3c2)C(=O)NC2(C(=O)N[C@@H](CCC(=O)O)C(=O)N[C@@H](CC(N)=O)C(=O)N[C@@H](Cc3cccnc3)C(=O)N(C)CC(=O)N(C)C)CCOCC2)C(C)(C)SSC1(C)C [compound 106, MeCO-Pen(3)-N(N(Me)2)-T-7MeW-K(NMeAc)-Pen(3)-AEF(N(Me)2)-2Nal-THP-E-N-3Pya-Sar-CON(Me)2] (Ac-[Pen]D(NMe2)T[Trp(7-Me)][Lys(Me)](Ac)[Pen]Y(Me2NCH2CH2)[2Nal][Thp]EN[3Pal][Sar]-NMe2; disulfide 1-6 (inferred))
